Holding throughout (type): functional
Experiment [1] concerns Mus musculus. Put plainly: In vivo antineoplastic activity against Ehrlich ascites carcinoma (EAC) cells in mice at 50 mg/kg body weight upon intraperitoneal administration. The conditions noted are these: ip.
For experiment [2], the species on record is Mus musculus. Put plainly: Observed biological activity converted into logit model against Ehrlich ascites carcinoma in mice.
Experiment [3] deals with Mus musculus. Put plainly: In vivo antineoplastic activity against Ehrlich ascites carcinoma fluid in mice at 50 mg/kg body weight upon intraperitoneal administration. The conditions noted are these: ip.
The test system of experiment [4] is Mus musculus. Put plainly: In vivo antineoplastic activity against Ehrlich ascites carcinoma (EAC) cells in mice at 1 mg/kg body weight upon intraperitoneal administration. The conditions noted are these: ip.
Experiment [5] deals with Mus musculus. In words: In vivo antineoplastic activity against Ehrlich ascites carcinoma fluid in mice at 1 mg/kg body weight upon intraperitoneal administration. The conditions noted are these: ip.

SMILES strings stand for the structures.

Usually inhibition in vivo stands for the drop in the measured response relative to a control, in per cent.

For `NNC(=O)C1CCC(=O)N1S(=O)(=O)c1ccc(Cl)c(Cl)c1` (stereo unspecified), the inhibition in vivo at 50 mg/kg with Mus musculus [1] worked out at 59.3%; in the experiment with Mus musculus [3], 58.3%. This compound also yielded a logit activity in the experiment filed under Mus musculus [2] of 1.03.
As for `O=C(NNc1ccccc1)C1CCC(=O)N1S(=O)(=O)c1ccc(Cl)c(Cl)c1` (stereo unspecified), the inhibition in vivo at 50 mg/kg in the experiment on Mus musculus [1] was found to be 66.8%; with Mus musculus [3] it was 57.7%. In addition, the logit activity in the experiment filed under Mus musculus [2] worked out at 1.16.
`Cc1ccc(S(=O)(=O)N2C(=O)CCC2C(=O)NNc2ccccc2)cc1` (stereo unspecified): the inhibition in vivo at 50 mg/kg stood at 77.6% in the experiment on Mus musculus [1] and 64.3% with Mus musculus [3]. In addition, the logit activity in the experiment listed under Mus musculus [2] amounted to 1.89.
On to `Cc1ccc(S(=O)(=O)N2C(=O)CCC2C(=O)NN)cc1` (stereo unspecified), for which the inhibition in vivo at 50 mg/kg came out at 50.1% in the experiment with Mus musculus [1] and 52.8% with Mus musculus [3]. In the experiment filed under Mus musculus [2], this compound came in with a logit activity of 0.61.
For the compound `O=C(NNc1ccccc1)C1CCC(=O)N1S(=O)(=O)c1ccc(Cl)cc1` (stereo unspecified), the inhibition in vivo at 50 mg/kg in the experiment on Mus musculus [1] amounted to 74.3%; with Mus musculus [3], 71.4%. The compound also yielded a logit activity in the experiment listed under Mus musculus [2] of 3.13.
Take `NNC(=O)C1CCC(=O)N1S(=O)(=O)c1ccc(Cl)cc1` (stereo unspecified): the inhibition in vivo at 50 mg/kg with Mus musculus [1] was 64.9%; with Mus musculus [3], 61.1%. In the experiment filed under Mus musculus [2], this compound had a logit activity of 1.25.
Take `CO[C@@]12[C@H](COC(N)=O)C3=C(C(=O)C(C)=C(N)C3=O)N1C[C@@H]1N[C@@H]12` [MITOMYCIN]: the inhibition in vivo at 1 mg/kg in the experiment on Mus musculus [4] and in the experiment with Mus musculus [5] was 100% each time.
As to `NNC(=O)C1CCC(=O)N1S(=O)(=O)c1ccccc1` (stereo unspecified), the results for the inhibition in vivo at 50 mg/kg in the experiment with Mus musculus [1] and in the experiment on Mus musculus [3] were 40.3% and 44.4%, respectively. This compound came in with a logit activity in the experiment listed under Mus musculus [2] of -0.549.
With `O=C(NNc1ccccc1)C1CCC(=O)N1S(=O)(=O)c1ccccc1` (stereo unspecified), the inhibition in vivo at 50 mg/kg with Mus musculus [1] worked out at 79%; in the experiment with Mus musculus [3], 85.7%. In the experiment filed under Mus musculus [2], this compound gave a logit activity of 5.59.

(Values after ChEMBL document CHEMBL1127768, “Possible antineoplastic agents : part 14 - synthesis, activity and QSAR studies of some 1-(substituted benzenesulphonyl)-5-oxopyrrolidine-2-carboxylic acid hydrazides” (1994).)
